Data from PubChem BioAssay AID2060884 (Molecular Pharmacology Branch, DTP, NCI, 2025).

Test system: NCI-H929 complex spheroids, viability % test/control
Experiment: Anticancer human tumor NCI-H929 cell line growth inhibition [RAS];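 note: compound exposure lasted seven days before viability was read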
Details: for IC50: curve of first compound; for viability, T/C: stronger effect = lower value
From the text: RAS pathway inhibitors in Combinations in Complex Spheroids
A high-throughput screen of multi-cell type tumor spheroids was designed to identify active combinations of RAS pathway inhibitors and targeted small molecules. Complex spheroids include a stromal component modeled by human endothelial cells (HUVEC) and fibroblasts modeled by human mesenchymal stem cells (MSCs). The concentration ranges selected for each drug and investigational agent were based upon clinically achievable concentrations if the clinical Cmax of the agent was known.
Compounds. The drugs and investigational agents: abemaciclib (NSC768073), cobimetinib (NSC768068), divarasib (GDC6063, NSC841802), docetaxel (NSC628503), GDC-1971 (RLY-1971, NSC841576), gemcitabine (NSC613327), inavolisib (NSC800729), ipatasertib (NSC767898), KB-0742 (NSC834161), MRTX-1133 (NSC836407), osimertinib (NSC779217), RMC-4630 (NSC839698), RMC-6236 (NSC851965), RMC-6291 (NSC852671), Ro-3306 (NSC812927), sapanisertib (NSC764658), SN-38 (NSC673596), staurosporine (NSC755774), SY5609 (NSC837396), and tovorafenib (DAY101, NSC766906), were obtained from the National Cancer Institute (NCI) Developmental Therapeutics Program Chemical Repository. The FDA-approved anticancer drug set is available from the NCI Developmental Therapeutics Program. […] The stock solutions were prepared in dimethyl sulfoxide (DMSO, Sigma-Aldrich, St. Louis, MO, cat. D2650) at 800-fold the tested concentration and stored at -70 degrees C prior to their use. All drugs and investigational agents were tested over a range starting from a high concentration at or near the clinical Cmax and decreasing in half-log increments. If the clinical Cmax for an agent had not been determined, the highest concentration tested was 10 microM.
Cell Culture. All cells were maintained in an incubator at 37 degrees C and 5% CO2 with 95% humidity. The PDC lines were cultured according to standard operating procedures established by the NCI PDMR. All PDCs were thawed and cultured in Matrigel-coated flasks prepared with a working solution of 1X Ham's F-12 nutrient mix, without supplementation (Invitrogen, Waltham, MA, cat. 11765054), 100 U/mL penicillin-streptomycin (Invitrogen, cat. 15140122), and 2.5% Matrigel (Corning Inc., Corning, NY, cat. 354248) for the first three passages. The 362531-283-R-J2-PDC and 782815-120-R-J1-PDC lines were cultured in 6C/Colon 1B media, which includes advanced DMEM/F-12 (Thermo Fisher Scientific, cat. 12634028), 10 mM HEPES (Thermo Fisher Scientific, cat. 15630080), 1X GlutaMAX supplement (Thermo Fisher Scientific, cat. 35050061), 0.1 mg/mL primocin (InvivoGen, San Diego, CA, cat. ant-pm-2), 10% defined fetal bovine serum, heat inactivated (HyClone Laboratories Inc., Logan, UT, cat. SH30070.03HI), 50% L-WRN conditioned media (ATCC, cat. CRL-3276), 1.25 mM N-Acetyl-L-cysteine (Sigma-Aldrich, cat. A9165), 10 mM nicotinamide (Sigma-Aldrich, cat. N0636), 1X B-27 supplement (Thermo Fisher Scientific, cat. 17504044), 1X N-2 supplement (Thermo Fisher Scientific, cat. 17502048), 50 ng/mL human EGF (Thermo Fisher Scientific, cat. PHG0311), and 10 microM Y-27632 dihydrochloride (Tocris Bioscience, cat. 1254). The K12877-001-R-J1-PDC line was cultured in 6I media, which includes all 6C/Colon 1B media plus 10 ng/mL human FGF-10 (PeproTech, cat. 100-26), 1 ng/mL human FGF-2 (PeproTech, cat. 100-18B), 1 µM prostaglandin E2 (Tocris Bioscience, cat. 2296), […] hydrocortisone (Sigma-Aldrich, cat. H4001), and […] bovine insulin (Sigma-Aldrich, cat. I6634). The K86415-001-R-J1-PDC line was cultured in 6D media, which includes all 6C/Colon 1B media components minus the L-WRN conditioned media. The 485176-168-R4-J1-PDC was cultured in PANC media, which includes all 6C/Colon 1B media plus 100 ng/mL human FGF-10 (PeproTech, cat. 100-26), 500 nM SB-431542 (Selleckchem, cat. S1067), and 10 nM gastrin (Tocris Bioscience, cat. 3006). […]

Structure (SMILES): C[C@@H](NC(=O)c1ncnc(N)c1Cl)c1ncc(C(=O)Nc2cc(C(F)(F)F)c(Cl)cn2)s1 + C#Cc1c(F)ccc2cc(O)cc(-c3ncc4c(N5CC6CCC(C5)N6)nc(OCC56CCCN5CC(F)C6)nc4c3F)c12
- IC50 (second compound 0.0316 µM): > 10 µM
- IC50 (second compound 0.1 µM): > 10 µM
- IC50 (second compound 0.316 µM): > 10 µM
- IC50 (second compound 1 µM): > 10 µM
- IC50 (second compound 3.16 µM): > 10 µM
- IC50 (second compound 10 µM): > 10 µM
- viability, T/C (second compound 0.0316 µM, first compound 0.0316 µM): 91.7%
- viability, T/C (second compound 0.0316 µM, first compound 0.1 µM): 89%
- viability, T/C (second compound 0.0316 µM, first compound 0.316 µM): 93.6%
- viability, T/C (second compound 0.0316 µM, first compound 1 µM): 79.9%
- viability, T/C (second compound 0.0316 µM, first compound 3.16 µM): 92.2%
- viability, T/C (second compound 0.0316 µM, first compound 10 µM): 108%
- viability, T/C (second compound 0.1 µM, first compound 0.0316 µM): 96.2%
- viability, T/C (second compound 0.1 µM, first compound 0.1 µM): 88.3%
- viability, T/C (second compound 0.1 µM, first compound 0.316 µM): 89.4%
- viability, T/C (second compound 0.1 µM, first compound 1 µM): 80.7%
- viability, T/C (second compound 0.1 µM, first compound 3.16 µM): 95.1%
- viability, T/C (second compound 0.1 µM, first compound 10 µM): 110%
- viability, T/C (second compound 0.316 µM, first compound 0.0316 µM): 95.3%
- viability, T/C (second compound 0.316 µM, first compound 0.1 µM): 94%
- viability, T/C (second compound 0.316 µM, first compound 0.316 µM): 91.5%
- viability, T/C (second compound 0.316 µM, first compound 1 µM): 85.9%
- viability, T/C (second compound 0.316 µM, first compound 3.16 µM): 96.4%
- viability, T/C (second compound 0.316 µM, first compound 10 µM): 106%
- viability, T/C (second compound 1 µM, first compound 0.0316 µM): 94.9%
- viability, T/C (second compound 1 µM, first compound 0.1 µM): 91.2%
- viability, T/C (second compound 1 µM, first compound 0.316 µM): 94.8%
- viability, T/C (second compound 1 µM, first compound 1 µM): 84.3%
- viability, T/C (second compound 1 µM, first compound 3.16 µM): 84.1%
- viability, T/C (second compound 1 µM, first compound 10 µM): 109%
- viability, T/C (second compound 3.16 µM, first compound 0.0316 µM): 89.4%
- viability, T/C (second compound 3.16 µM, first compound 0.1 µM): 94.9%
- viability, T/C (second compound 3.16 µM, first compound 0.316 µM): 82.6%
- viability, T/C (second compound 3.16 µM, first compound 1 µM): 90.7%
- viability, T/C (second compound 3.16 µM, first compound 3.16 µM): 89.8%
- viability, T/C (second compound 3.16 µM, first compound 10 µM): 111%
- viability, T/C (second compound 10 µM, first compound 0.0316 µM): 77.3%
- viability, T/C (second compound 10 µM, first compound 0.1 µM): 59.4%
- viability, T/C (second compound 10 µM, first compound 0.316 µM): 79.2%
- viability, T/C (second compound 10 µM, first compound 1 µM): 74.1%
- viability, T/C (second compound 10 µM, first compound 3.16 µM): 92.1%
- viability, T/C (second compound 10 µM, first compound 10 µM): 101%
